Columns and labels:
[1] = tested on: MOLM-14 TKD cells (FLT3-ITD-D835Y); experiment: Cell proliferation, MOLM-14 expressing FLT3-ITD/TKD (D835Y); format: cell-based, human; conditions: 200 nM
From the text: (§1) Cells were harvested each day and counted after trypan blue staining. The graphs represent three independent experiments.
We consequently developed a cellular model consisting of MOLM-14 cells transfected with a FLT3-ITD mutant with a D835Y amino-acid substitution within the FLT3 kinase domain (FLT3-ITD-D835Y; FLT3-ITD/TKD).

[2] = tested on: C/EBPα Ser21 phosphorylation, c-myc, C/EBPε; experiment: Western blot of differentiation markers in MOLM-14; format: cell-based, human; conditions: MOLM-14, 100 nM
Method: (a-b) MOLM-14 and MV4-11 cells were treated for different times with IRC-083864 (100 nM and 200 nM) and the expression of the cell surface markers CD11b, CD14 and CD15 were followed by flow cytometry analysis. (c) MOLM-14 and MV4-11 cells were treated for different times with IRC-083864 (100 nM) and morphological changes were estimated by microscopy after cells were cytospun and stained at days 8 and 13. Original magnification ×100. (d) MOLM-14 cells were treated for different times with IRC-083864 (100 nM) and c-myc expression as well as C/EBPα phosphorylation on serine 21 were analyzed by western blot at day 1, and C/EBPε expression after 6 days of treatment. (e) MOLM-14 cells were transfected with CDC25A shRNA The expression of the cell surface markers CD11b, CD14 and CD15 were followed by flow cytometry analysis at day 3 and 6 (upper panel), and their morphology was analyzed by microscopy after 6 days (lower panel). Original magnification ×100. (f) MOLM-14 cells were transfected with CDC25A siRNA, and their morphology was analyzed by microscopy after 3 days (upper panel). Original magnification ×100. The efficiency of CDC25A siRNA was assessed by western blot analysis (lower panel).
Western blot. 2×10^6 cells were usually lysed in 100 μL of NuPAGE® LDS Sample Buffer (Novex, Life Technologies, Carlsbad, Calif., USA), sonicated for 15 seconds, and boiled for 3 minutes. Proteins were then resolved on NuPAGE® 4-12% Bis-Tris Gels and transferred to nitrocellulose membrane. Saturation of the membrane was done for 1 hour in Tris Buffer Saline with Tween 0.1% (TBS-T) containing 5% non-fat milk or 5% bovine serum albumin. Membranes were blotted with proper antibodies overnight at 4° C., washed thrice with TBS-T, and incubated for 30 minutes with HRP-conjugated secondary antibody (Promega, Madison, Wis., USA). […]

Cdc25A = Cdc25A (Homo sapiens, UniProt P30304); conditions: cited from earlier work
Chain of Cdc25A (P30304 whole entry): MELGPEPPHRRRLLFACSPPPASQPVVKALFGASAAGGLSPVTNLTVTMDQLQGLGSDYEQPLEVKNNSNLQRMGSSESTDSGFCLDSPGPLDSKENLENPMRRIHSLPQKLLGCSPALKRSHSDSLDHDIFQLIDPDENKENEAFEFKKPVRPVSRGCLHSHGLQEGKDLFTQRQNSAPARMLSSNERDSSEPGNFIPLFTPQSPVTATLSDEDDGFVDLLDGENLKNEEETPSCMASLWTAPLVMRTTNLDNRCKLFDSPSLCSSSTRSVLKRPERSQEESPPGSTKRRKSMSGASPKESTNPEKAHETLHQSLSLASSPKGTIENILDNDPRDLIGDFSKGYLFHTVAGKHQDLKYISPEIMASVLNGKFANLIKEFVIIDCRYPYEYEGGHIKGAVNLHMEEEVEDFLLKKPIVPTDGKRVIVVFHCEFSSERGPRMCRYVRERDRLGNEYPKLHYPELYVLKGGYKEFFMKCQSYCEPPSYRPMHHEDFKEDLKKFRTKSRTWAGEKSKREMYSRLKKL

[3] = tested on: MOLM-14 cells (FLT3-ITD positive); experiment: Cell proliferation, trypan blue counting, MOLM-14; format: cell-based, human; conditions: 200 nM
Method: as §1
Cell lines and reagents. […] Concerning MOLM-14 cell line, the presence of a monoallelic 21 bp FLT3-ITD mutation and of an MLL-containing ins(11; 9)(q23;p22p23) were verified (Hematology laboratory of Toulouse University Hospital, Prof E. Delabesse and Dr I. Luquet). KG1 and HL-60 (ACC-14 and ACC-3, DSMZ) cell lines were grown in Iscove's Modified Dulbecco's Medium (IMDM, Gibco) plus 20% FBS. All cells were grown in the presence of 100 units/ml of penicillin and streptomycin (Invitrogen) at 37° C. and 5% CO2.
siRNA. The MV4-11 cell line was transfected with the Amaxa nucleofection technology (Lonza, Koeln, Germany). […] Twenty-four or forty-eight hours after transfection, cells were counted (trypan blue staining), and western blotting was performed.

[4] = tested on: human cell lines (tumor cell proliferation); conditions: compared with BN82685; cited from earlier work

Cc1nc2c(s1)C(=O)C=C(NCCCN(C)CCCNC1=CC(=O)c3nc(-c4cc(F)ccc4F)oc3C1=O)C2=O [IRC-083864]
proliferation and death of ITD/TKD cells [1]: induced cell proliferation arrest and cell death | C/EBPα phosphorylation on serine 21 ([2]; day 1): dephosphorylation | c-myc expression ([2]; day 1): down-regulation | C/EBPε expression ([2]; day 6): up-regulation | IC50 Cdc25 enzyme type A (Cdc25A): nanomolar range | proliferation of MOLM-14 [3]: robust inhibition | potency of tumor cell proliferation inhibition [4]: equivalent to that of BN82685
